Reference: patent US20230295163A1, “TETRACYCLIC DERIVATIVE, METHOD FOR PREPARING SAME AND USE THEREOF IN MEDICINE” (ZHEJIANG HISUN PHARMACEUTICAL CO., LTD., priority 2020, published 2023)

Assays:
[1] = biological target: T1, recombinant human KRAS G12C protein (Homo sapiens, UniProt P01116, G12C); experiment: Covalent binding ability to KRAS G12C protein (LC-MS); conditions: 3 μM, 5 min
T1 construct: The recombinant human KRAS G12C protein (aa1-169)
Method: The following method was used to determine the covalent binding ability of the compounds of the present disclosure to recombinant human KRAS G12C protein under in vitro conditions.
The experimental procedure is briefly described as follows: The recombinant human KRAS G12C protein (aa1-169) was prepared with a reaction buffer (20 mM HEPES, 150 mM NaCl, 1 mM MgCl2, 1 mM DTT) at a concentration of 4 μM for later use. The test compound was prepared with DMSO into a 10 mM stock solution, which was then diluted with the reaction buffer for later use. First, 1.5 μL of the test compound diluted with the reaction buffer was added to each well (a final concentration of the reaction system was […]), then added with 23.5 μL of the reaction buffer, mixed well, then added with 25 μL of 4 μM recombinant human KRAS G12C protein for 5 min of incubation at room temperature, and added with 5 μL of acetic acid to stop the reaction. The samples were transferred to injection vials. The ratios of covalent binding between the test compounds and KRAS G12C protein were detected by Agilent 1290/6530 instrument, and the samples were analyzed in a liquid chromatography column (XBridge Protein BEH C4, 300 Å, 3.5 μm, 2.1 mm×50 mm). In the detection process, mobile phase A was 0.1% formic acid aqueous solution, mobile phase B was acetonitrile, the mobile phase elution program was as follows: mobile phase A was kept at 95% at 0-0.5 min, changed to 30% at 2.5 min for 0.5 min, and changed to 95% at 3.1 min for 1.9 min; and flow rate was 0.5 mL/min. Finally, the data was analyzed by MassHunter Workstation Software Bioconfirm Version B.08.00 to obtain the covalent binding rate between the test compound at a concentration of 3 μM and KRAS G12C protein under 5 min of incubation.

[2] = ICR mouse pharmacokinetic research; type: in vivo; conditions: plasma, po, ICR mice, intragastric administration 5 mg/kg
Method: ICR mice were used as test animals. The drug concentrations in plasma at different time points of the compounds in Comparative Example 1 and Example 17 of the present disclosure intragastrically administered to the mice were determined by LC/MS/MS method, to study the pharmacokinetic characteristics of the compounds of the present disclosure in mice.
Preparation for intragastric administration: An appropriate amount of the compound to be tested was weighed, added with an appropriate amount of DMSO: PEG 200=5%: 95% (v/v), shaken by vortex, and prepared into a solution with a final concentration of 0.5 mg/mL.
Intragastric administration group: After fasting overnight, the mice were intragastrically administered at a dose of 5 mg/kg and a volume of 10 mL/kg, and fed 4 h after the administration.
Intragastric administration group: About 100 μL of blood was collected through the orbital vein before administration and at 0.25 h, 0.5 h, 1 h, 2 h, 4 h, 8 h, 12 h and 24 h after administration.
The whole blood sample was put in an EDTA-K2 anticoagulant tube. The plasma was separated by centrifugation at 1500 g for 10 min. The collected upper layer plasma was stored at −40 to −20° C. before analysis.
The content of the compound to be tested in mouse plasma was determined by LC-MS/MS after the compound was intragastrically administered.

[3] = biological target: T2, hERG potassium ion channel (Homo sapiens, UniProt Q12809); experiment: Inhibition of hERG potassium ion channel (QPatch, CHO hERG cells); type: cell-based
T2 construct: host or cells: CHO
T2 sequence (Q12809 whole entry): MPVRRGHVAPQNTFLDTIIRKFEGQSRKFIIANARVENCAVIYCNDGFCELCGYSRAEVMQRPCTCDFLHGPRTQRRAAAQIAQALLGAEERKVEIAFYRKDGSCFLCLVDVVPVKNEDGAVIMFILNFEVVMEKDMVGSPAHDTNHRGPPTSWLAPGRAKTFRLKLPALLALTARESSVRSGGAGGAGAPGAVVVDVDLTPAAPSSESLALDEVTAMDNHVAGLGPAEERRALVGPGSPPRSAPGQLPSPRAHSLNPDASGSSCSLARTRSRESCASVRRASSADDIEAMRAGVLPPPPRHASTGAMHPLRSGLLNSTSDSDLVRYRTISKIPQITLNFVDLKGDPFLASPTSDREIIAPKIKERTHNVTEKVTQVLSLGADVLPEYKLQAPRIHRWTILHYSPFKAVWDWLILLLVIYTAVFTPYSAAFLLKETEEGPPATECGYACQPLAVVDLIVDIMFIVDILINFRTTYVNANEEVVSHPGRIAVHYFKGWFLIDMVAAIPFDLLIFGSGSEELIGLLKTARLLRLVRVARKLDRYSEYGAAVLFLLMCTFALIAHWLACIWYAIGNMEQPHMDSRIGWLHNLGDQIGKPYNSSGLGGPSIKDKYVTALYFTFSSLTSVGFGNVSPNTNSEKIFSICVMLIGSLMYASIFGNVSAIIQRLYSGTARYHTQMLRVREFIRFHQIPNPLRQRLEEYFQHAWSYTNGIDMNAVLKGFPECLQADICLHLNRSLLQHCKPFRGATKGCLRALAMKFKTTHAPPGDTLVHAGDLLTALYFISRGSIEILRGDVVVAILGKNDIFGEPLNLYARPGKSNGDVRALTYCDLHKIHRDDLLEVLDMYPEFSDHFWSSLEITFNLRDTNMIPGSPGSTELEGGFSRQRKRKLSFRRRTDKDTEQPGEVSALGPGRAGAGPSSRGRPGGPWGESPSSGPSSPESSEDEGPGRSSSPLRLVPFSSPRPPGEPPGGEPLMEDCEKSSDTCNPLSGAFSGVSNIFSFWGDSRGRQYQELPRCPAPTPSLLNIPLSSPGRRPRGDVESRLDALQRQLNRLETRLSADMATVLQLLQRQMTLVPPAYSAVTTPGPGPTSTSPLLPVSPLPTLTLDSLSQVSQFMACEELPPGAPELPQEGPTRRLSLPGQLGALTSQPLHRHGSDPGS
Method: 1.1 The cells used in this experiment were CHO cell line (provided by Sophion Bioscience, Denmark) transfected with hERG cDNA and stably expressing hERG channels, with a cell generation of 17. The cells were cultured in a medium containing the following components (all obtained from Invitrogen): Ham's F12 medium, 10% (v/v) inactivated fetal bovine serum, 100 μg/mL hygromycin B, and 100 μg/mL geneticin.
1.2 CHO hERG cells were cultured in a petri dish containing the above culture medium in an incubator containing 5% CO2 at 37° C. 24 to 48 h before the electrophysiological experiment, CHO hERG cells were transferred to a round glass slide placed in a petri dish, and cultured in the same medium and conditions as above. The density of CHO hERG cells on each round glass slide met the requirement that the majority of cells were independent and individual.
A fully automated QPatch system (Sophion, Denmark) was used for whole-cell current recordings. Cells were clamped at a voltage of −80 mV. […]
After reaching a membrane-permeable whole-cell configuration state during the initial phase, the cells were recorded for at least 120 s to reach stabilization. […]
The test data were analyzed by analysis software Qpatch provided by Sophion, Excel, Graphpad Prism, and the like.

T1 sequence (P01116 1-169 isoform P01116-2 G12C): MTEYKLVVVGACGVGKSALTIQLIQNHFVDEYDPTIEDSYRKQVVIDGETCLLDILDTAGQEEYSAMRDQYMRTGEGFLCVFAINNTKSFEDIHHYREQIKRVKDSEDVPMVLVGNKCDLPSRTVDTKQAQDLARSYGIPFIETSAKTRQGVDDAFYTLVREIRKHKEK

Covalent binding rate (%) [1]: 63.4% | AUC(0-inf) ([2]; read-out: Area under curve AUC0-∞): 6.38 µg·h/mL | Cmax ([2]; read-out: Blood concentration Cmax): 1.4 µg/mL | half-life ([2]; read-out: Half-life T½ (converted)): 2.36 h
SMILES: C=CC(=O)N1C[C@@H]2C(=O)N(C)c3c(c4cc(Cl)c(-c5c(O)cccc5F)nc4n(-c4c(SC)ccnc4C(C)C)c3=O)N2C[C@H]1C (single isomer, unassigned) [Compound 17]
Inhibitory effect on heart hERG potassium ion channel (in words) [3]: no obvious inhibitory effect | IC50 ([3]; highest test concentration 30 μM): > 30 µM
